Test results reported in patent publication US20100298141A1, “SUBSTITUTED PYRIDINE N-OXIDE HERBICIDES” (E. I. DU PONT DE NEMOURS AND COMPANY, priority 2007, published 2010).

What was measured:
winter wheat (TRZAW) [1] = experiment: Test H preemergence mixtures of compound 2 with crop safeners; type: in vivo, Triticum aestivum; set-up: key to TRZAW Obsd. (observed effect): observed % effect, visually evaluated vs controls
From the text: (§1) Seeds of test plants consisting of winter wheat (TRZAW, Triticum aestivum), corn (ZEAMD, Zea mays cv. ‘Pioneer 33G26’), giant foxtail (SETFA, Setaria faberi), and Italian ryegrass (LOLMU, Lolium multiflorum) were planted into a blend of loam soil and sand and treated preemergence with a directed soil spray using test chemicals formulated in a non-phytotoxic solvent mixture that included a surfactant. Seeds of small-seeded species were planted about 1 cm deep; larger seeds were planted about 2.5 cm deep. […] Balanced fertilizer was applied through the watering system. Treatments consisted of Compound 2 and the above mentioned safeners alone and in combination using a spray volume of 457 L/ha. Each treatment was replicated four times. Treated plants and controls were maintained in a greenhouse for 14 to 21 days, after which time all species were compared to controls and visually evaluated. […] A dash (-) response means no test result. Colby's Equation was used to determine the herbicidal effects expected from the mixtures. Colby's Equation (Colby, S. […] wherein • Pa+b is the percentage effect of the mixture expected from additive contribution of the individual components, • Pa is the observed percentage effect of the first active ingredient at the same use rate as in the mixture, and • Pb is the observed percentage effect of the second active ingredient at the same use rate as in the mixture.

corn (ZEAMD) [2] = experiment: as above; type: in vivo, Zea mays cv. ‘Pioneer 33G26’; set-up: key to ZEAMD Obsd. (observed effect): observed % effect, visually evaluated vs controls
From the text: as §1

giant foxtail (SETFA) = experiment: as above; type: in vivo, Setaria faberi; set-up: key to SETFA Obsd. (observed effect): observed % effect, visually evaluated vs controls
From the text: as §1

Italian ryegrass (LOLMU) [3] = experiment: as above; type: in vivo, Lolium multiflorum; set-up: key to LOLMU Obsd. (observed effect): observed % effect, visually evaluated vs controls
From the text: as §1

winter wheat (TRZAW) [4] = experiment: Test I preemergence mixtures of compound 2 with crop safeners; type: in vivo, Triticum aestivum; details: alone
From the text: (§2) Seeds of test plants consisting of winter wheat (TRZAW, Triticum aestivum), corn (ZEAMD, Zea mays cv. ‘Pioneer 33G26’), wild oat (AVEFA, Avena fatua), and Italian ryegrass (LOLMU, Lolium multiflorum) were planted into a blend of loam soil and sand and treated preemergence with a directed soil spray using test chemicals formulated in a non-phytotoxic solvent mixture that included a surfactant. Seeds of small-seeded species were planted about 1 cm deep; larger seeds were planted about 2.5 cm deep. […] Balanced fertilizer was applied through the watering system. Treatments consisted of Compound 2 and the above mentioned safeners alone and in combination using a spray volume of 457 L/ha. Each treatment was replicated four times. Treated plants and controls were maintained in a greenhouse for 14 to 21 days, after which time all species were compared to controls and visually evaluated. […] A dash (-) response means no test result. Colby's Equation was used to determine the herbicidal effects expected from the mixtures. Colby's Equation (Colby, S. […] Pa+b=Pa+Pb−(PaPb/100) wherein • Pa+b is the percentage effect of the mixture expected from additive contribution of the individual components, • Pa is the observed percentage effect of the first active ingredient at the same use rate as in the mixture, and • Pb is the observed percentage effect of the second active ingredient at the same use rate as in the mixture.

corn (ZEAMD) [5] = experiment: as above; type: in vivo, Zea mays cv. ‘Pioneer 33G26’; details: alone
From the text: as §2

wild oat (AVEFA) = experiment: as above; type: in vivo, Avena fatua; details: alone
From the text: as §2

Italian ryegrass (LOLMU) [6] = experiment: as above; type: in vivo, Lolium multiflorum; details: alone
From the text: as §2

winter wheat (TRZAW) [7] = experiment: Test J preemergence mixtures of Compound 2 with crop safeners; type: in vivo, Triticum aestivum; set-up: key to TRZAW Obsd. (observed effect): observed % herbicidal effect
From the text: as §1, with “aestivum) and” for “aestivum),”, “33G26’)” for “33G26’), giant foxtail (SETFA, Setaria faberi), and Italian ryegrass (LOLMU, Lolium multiflorum)”, “surfactant.” for “surfactant. Seeds of small-seeded species were planted about 1 cm deep; larger seeds were planted about 2.5 cm deep.”, “times.” for “times. Treated plants and controls were maintained in a greenhouse for 14 to 21 days, after which time all species were compared to controls and visually evaluated.”, “and” for “and •”

corn (ZEAMD) [8] = experiment: as above; type: in vivo, Zea mays cv. ‘Pioneer 33G26’; set-up: key to ZEAMD Obsd. (observed effect): observed % herbicidal effect
From the text: as §1, with “aestivum) and” for “aestivum),”, “33G26’)” for “33G26’), giant foxtail (SETFA, Setaria faberi), and Italian ryegrass (LOLMU, Lolium multiflorum)”, “surfactant.” for “surfactant. Seeds of small-seeded species were planted about 1 cm deep; larger seeds were planted about 2.5 cm deep.”, “times.” for “times. Treated plants and controls were maintained in a greenhouse for 14 to 21 days, after which time all species were compared to controls and visually evaluated.”, “and” for “and •”

[9] = Cmpd 2 alone 125 g a.i./ha, scale 0 to 100, mean of four replicates
[10] = single active ingredient alone at 125 g a.i./ha

Cc1cc[n+]([O-])c(S(=O)(=O)Cc2c(C(F)(F)F)nn(C)c2OC(F)F)c1 [Compound 2]
Plant response rating TRZAW Obsd. (winter wheat (TRZAW) [1]; [9]): 63 | TRZAW Obsd. (observed effect) (winter wheat (TRZAW) [1]; Test H, alone, 125 g a.i./ha): 63 | Plant response rating ZEAMD Obsd. (corn (ZEAMD) [2]; [9]): 15 | ZEAMD Obsd. (observed effect) (corn (ZEAMD) [2]; Test H, alone, 125 g a.i./ha): 15 | Plant response rating SETFA Obsd. (giant foxtail (SETFA); [9]): 100 | SETFA Obsd. (observed effect) (giant foxtail (SETFA); Test H, alone, 125 g a.i./ha): 100 | Plant response rating LOLMU Obsd. (Italian ryegrass (LOLMU) [3]; [9]): 53 | LOLMU Obsd. (observed effect) (Italian ryegrass (LOLMU) [3]; Test H, alone, 125 g a.i./ha): 53 | TRZAW Obsd. (observed effect) (winter wheat (TRZAW) [4]; 125 g a.i./ha): 93 | TRZAW Obsd. (observed effect) (winter wheat (TRZAW) [4]; 250 g a.i./ha): 100 | ZEAMD Obsd. (observed effect) (corn (ZEAMD) [5]; 125 g a.i./ha): 69 | ZEAMD Obsd. (observed effect) (corn (ZEAMD) [5]; 250 g a.i./ha): 93 | AVEFA Obsd. (observed effect) (wild oat (AVEFA); 125 g a.i./ha): 93 | AVEFA Obsd. (observed effect) (wild oat (AVEFA); 250 g a.i./ha): 96 | LOLMU Obsd. (observed effect) (Italian ryegrass (LOLMU) [6]; 125 g a.i./ha): 48 | LOLMU Obsd. (observed effect) (Italian ryegrass (LOLMU) [6]; 250 g a.i./ha): 89 | TRZAW Obsd. (observed effect) (winter wheat (TRZAW) [7]; Test J, alone, 125 g a.i./ha): 100 | Observed effect (Obsd.), TRZAW (winter wheat (TRZAW) [7]; [10]): 100% | ZEAMD Obsd. (observed effect) (corn (ZEAMD) [8]; Test J, alone, 125 g a.i./ha): 35 | Observed effect (Obsd.), ZEAMD (corn (ZEAMD) [8]; [10]): 35%
